ChEMBL document CHEMBL5113388 (Bioorg Med Chem Lett, 2022)
Values belong to the compound of their own block, whether it stands above or below them.

Assays:
BaF3 = assay: Antiproliferative activity against mouse BaF3 cells harboring del19/T790M/C797S mutant assessed as inhibition of cell proliferation; assay type: functional, cell-based
PC-9 [1] = assay: Antiproliferative activity against human PC-9 cells harboring EGFR del19/T790M/C797S mutant assessed as inhibition of cell proliferation; assay type: functional, cell-based
[2] = molecular target: Epidermal growth factor receptor (Homo sapiens, UniProt P00533); assay: Inhibition of wild type EGFR (unknown origin)
[3] = molecular target: Epidermal growth factor receptor (Homo sapiens, UniProt P00533, L858R); assay: Inhibition of EGFR L858R mutant (unknown origin)
Sequence of Epidermal growth factor receptor (Homo sapiens, UniProt P00533, L858R) (P00533 25-1210 L858R limits assumed): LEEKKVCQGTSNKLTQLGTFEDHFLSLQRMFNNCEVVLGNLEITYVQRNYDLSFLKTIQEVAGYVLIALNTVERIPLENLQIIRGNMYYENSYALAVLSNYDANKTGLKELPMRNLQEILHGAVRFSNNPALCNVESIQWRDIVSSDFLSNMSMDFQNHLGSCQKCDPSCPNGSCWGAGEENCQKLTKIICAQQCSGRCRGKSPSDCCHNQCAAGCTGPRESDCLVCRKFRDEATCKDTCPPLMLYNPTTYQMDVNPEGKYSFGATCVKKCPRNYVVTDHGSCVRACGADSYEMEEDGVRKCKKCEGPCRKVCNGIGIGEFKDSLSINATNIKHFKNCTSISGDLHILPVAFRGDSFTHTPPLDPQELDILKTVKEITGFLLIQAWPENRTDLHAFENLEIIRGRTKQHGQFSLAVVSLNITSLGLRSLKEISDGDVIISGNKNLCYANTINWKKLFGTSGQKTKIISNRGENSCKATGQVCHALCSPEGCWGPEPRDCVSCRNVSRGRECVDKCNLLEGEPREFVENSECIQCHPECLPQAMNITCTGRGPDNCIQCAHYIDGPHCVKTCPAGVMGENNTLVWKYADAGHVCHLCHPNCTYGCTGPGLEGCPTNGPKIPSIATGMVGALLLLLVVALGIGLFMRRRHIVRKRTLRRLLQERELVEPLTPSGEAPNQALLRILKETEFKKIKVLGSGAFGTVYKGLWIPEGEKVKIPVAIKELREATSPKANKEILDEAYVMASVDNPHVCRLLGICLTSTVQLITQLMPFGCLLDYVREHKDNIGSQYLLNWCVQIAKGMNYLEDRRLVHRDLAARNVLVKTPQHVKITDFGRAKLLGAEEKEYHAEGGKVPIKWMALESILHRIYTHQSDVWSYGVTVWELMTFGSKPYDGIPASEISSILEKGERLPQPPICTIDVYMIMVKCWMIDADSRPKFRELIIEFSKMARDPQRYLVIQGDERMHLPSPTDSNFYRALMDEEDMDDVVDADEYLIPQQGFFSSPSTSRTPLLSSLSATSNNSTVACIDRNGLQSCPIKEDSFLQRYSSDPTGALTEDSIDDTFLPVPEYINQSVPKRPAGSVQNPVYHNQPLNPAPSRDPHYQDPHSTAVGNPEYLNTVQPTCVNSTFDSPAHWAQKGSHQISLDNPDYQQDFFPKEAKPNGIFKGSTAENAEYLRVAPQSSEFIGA

[4] = molecular target: Epidermal growth factor receptor (Homo sapiens, UniProt P00533, EX19DEL); assay: Inhibition of EGFR del19 mutant (unknown origin)
[5] = molecular target: Epidermal growth factor receptor (Homo sapiens, UniProt P00533, EX19DEL/T790M); assay: Inhibition of EGFR del19/T790M mutant (unknown origin)
Sequence of Epidermal growth factor receptor (Homo sapiens, UniProt P00533, EX19DEL/T790M) (P00533 whole entry, looked up, stated change not applied): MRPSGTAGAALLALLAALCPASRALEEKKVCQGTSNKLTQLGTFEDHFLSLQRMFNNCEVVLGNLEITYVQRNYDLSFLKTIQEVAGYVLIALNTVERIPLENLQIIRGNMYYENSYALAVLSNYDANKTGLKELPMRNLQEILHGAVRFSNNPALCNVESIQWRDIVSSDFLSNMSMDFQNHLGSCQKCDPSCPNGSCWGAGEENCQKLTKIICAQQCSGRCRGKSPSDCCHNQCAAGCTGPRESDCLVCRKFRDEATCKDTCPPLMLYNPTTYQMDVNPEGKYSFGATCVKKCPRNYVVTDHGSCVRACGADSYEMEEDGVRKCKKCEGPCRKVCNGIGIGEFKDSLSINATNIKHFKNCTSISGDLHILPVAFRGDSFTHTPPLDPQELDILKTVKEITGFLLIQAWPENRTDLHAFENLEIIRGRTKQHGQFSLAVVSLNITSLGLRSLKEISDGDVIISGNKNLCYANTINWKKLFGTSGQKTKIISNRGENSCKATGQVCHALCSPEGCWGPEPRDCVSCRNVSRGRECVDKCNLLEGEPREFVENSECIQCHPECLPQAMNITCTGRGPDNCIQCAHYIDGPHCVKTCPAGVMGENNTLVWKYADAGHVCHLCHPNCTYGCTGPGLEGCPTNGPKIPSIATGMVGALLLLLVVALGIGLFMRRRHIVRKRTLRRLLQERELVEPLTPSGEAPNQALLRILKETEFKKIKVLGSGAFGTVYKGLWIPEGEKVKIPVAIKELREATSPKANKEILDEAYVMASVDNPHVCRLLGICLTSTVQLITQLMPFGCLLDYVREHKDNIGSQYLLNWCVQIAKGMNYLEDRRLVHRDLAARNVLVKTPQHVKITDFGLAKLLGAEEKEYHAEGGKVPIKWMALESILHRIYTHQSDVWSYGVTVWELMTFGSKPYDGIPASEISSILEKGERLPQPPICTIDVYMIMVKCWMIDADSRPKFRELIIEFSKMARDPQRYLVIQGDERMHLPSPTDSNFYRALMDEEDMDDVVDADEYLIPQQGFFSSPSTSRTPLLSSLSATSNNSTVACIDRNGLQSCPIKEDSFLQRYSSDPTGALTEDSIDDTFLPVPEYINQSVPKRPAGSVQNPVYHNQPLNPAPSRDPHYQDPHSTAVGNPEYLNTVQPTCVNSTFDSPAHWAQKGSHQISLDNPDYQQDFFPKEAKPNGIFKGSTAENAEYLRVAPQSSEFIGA

[6] = molecular target: Epidermal growth factor receptor (Homo sapiens, UniProt P00533, L858R/T790M); assay: Inhibition of EGFR L858R/T790M mutant (unknown origin)
Sequence of Epidermal growth factor receptor (Homo sapiens, UniProt P00533, L858R/T790M) (P00533 25-1210 T790M/L858R limits assumed): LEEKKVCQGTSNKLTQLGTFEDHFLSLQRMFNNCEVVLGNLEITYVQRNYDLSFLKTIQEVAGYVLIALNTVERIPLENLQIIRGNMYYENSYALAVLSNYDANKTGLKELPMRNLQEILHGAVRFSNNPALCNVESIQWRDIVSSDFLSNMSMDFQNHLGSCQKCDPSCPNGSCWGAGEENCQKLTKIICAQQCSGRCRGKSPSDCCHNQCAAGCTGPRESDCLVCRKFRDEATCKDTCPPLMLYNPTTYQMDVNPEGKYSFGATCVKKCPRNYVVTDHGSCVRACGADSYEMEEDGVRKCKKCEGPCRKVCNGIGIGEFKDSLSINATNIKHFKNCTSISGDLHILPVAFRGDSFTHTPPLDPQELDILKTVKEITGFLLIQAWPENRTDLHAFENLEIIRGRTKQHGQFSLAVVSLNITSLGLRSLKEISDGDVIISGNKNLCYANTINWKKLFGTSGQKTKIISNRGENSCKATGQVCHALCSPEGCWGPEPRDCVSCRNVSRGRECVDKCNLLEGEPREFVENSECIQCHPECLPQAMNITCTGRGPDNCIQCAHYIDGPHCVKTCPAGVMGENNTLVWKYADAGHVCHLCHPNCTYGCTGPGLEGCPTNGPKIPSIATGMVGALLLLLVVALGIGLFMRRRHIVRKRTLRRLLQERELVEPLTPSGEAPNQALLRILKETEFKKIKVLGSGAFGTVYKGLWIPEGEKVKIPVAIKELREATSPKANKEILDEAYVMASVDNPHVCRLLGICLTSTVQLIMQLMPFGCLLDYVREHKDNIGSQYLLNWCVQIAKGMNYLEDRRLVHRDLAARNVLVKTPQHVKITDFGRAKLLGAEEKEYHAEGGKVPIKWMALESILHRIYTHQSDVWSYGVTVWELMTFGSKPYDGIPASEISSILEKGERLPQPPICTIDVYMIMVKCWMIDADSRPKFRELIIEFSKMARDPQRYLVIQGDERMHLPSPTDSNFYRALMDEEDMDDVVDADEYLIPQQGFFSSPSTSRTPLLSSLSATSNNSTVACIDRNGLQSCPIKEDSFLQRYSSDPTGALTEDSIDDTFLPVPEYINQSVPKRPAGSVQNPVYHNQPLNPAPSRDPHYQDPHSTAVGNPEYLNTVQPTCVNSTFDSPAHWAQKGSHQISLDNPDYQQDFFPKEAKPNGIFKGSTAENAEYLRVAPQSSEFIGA

[7] = molecular target: Epidermal growth factor receptor (Homo sapiens, UniProt P00533, C797S/L858R/T790M); assay: Inhibition of EGFR L858R/T790M/C797S mutant (unknown origin)
Sequence of Epidermal growth factor receptor (Homo sapiens, UniProt P00533, C797S/L858R/T790M) (P00533 25-1210 T790M/C797S/L858R limits assumed): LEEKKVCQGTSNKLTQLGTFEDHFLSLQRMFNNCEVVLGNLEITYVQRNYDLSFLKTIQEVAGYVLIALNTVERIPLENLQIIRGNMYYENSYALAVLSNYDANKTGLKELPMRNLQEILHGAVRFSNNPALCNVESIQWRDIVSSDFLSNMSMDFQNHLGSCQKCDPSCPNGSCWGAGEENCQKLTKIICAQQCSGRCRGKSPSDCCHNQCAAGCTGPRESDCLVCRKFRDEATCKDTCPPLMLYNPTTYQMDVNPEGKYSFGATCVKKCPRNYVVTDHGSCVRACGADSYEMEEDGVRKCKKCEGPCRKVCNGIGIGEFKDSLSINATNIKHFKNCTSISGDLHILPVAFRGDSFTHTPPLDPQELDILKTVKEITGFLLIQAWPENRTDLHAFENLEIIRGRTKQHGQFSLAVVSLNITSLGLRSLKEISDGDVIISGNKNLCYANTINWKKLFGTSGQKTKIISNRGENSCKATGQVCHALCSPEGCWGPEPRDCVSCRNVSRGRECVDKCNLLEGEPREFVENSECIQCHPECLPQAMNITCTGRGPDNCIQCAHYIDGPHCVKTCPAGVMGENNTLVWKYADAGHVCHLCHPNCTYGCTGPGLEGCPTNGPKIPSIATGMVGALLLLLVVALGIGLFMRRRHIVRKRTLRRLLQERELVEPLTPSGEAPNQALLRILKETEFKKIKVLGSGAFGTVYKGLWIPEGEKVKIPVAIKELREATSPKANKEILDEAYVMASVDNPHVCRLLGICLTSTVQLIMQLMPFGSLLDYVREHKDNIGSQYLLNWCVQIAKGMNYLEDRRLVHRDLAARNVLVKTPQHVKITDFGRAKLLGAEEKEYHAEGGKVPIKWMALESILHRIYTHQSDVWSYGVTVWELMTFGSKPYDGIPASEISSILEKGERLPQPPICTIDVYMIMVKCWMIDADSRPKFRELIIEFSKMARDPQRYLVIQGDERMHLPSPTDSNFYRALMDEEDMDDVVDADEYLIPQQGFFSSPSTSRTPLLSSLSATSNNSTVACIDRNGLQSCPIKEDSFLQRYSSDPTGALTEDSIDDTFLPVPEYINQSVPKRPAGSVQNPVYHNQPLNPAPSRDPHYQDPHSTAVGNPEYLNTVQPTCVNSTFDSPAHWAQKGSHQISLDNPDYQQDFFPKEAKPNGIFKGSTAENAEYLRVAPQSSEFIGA

[8] = molecular target: Epidermal growth factor receptor (Homo sapiens, UniProt P00533, C797S/EX19DEL/T790M); assay: Inhibition of EGFR del19/T790M/C797S mutant (unknown origin)
Homo sapiens [9] = species on record: Homo sapiens; assay: Selectivity ratio of IC50 for inhibition of wild type EGFR (unknown origin) to IC50 for inhibition of EGFR L858R mutant (unknown origin)
Homo sapiens [10] = species on record: Homo sapiens; assay: Selectivity ratio of IC50 for inhibition of wild type EGFR (unknown origin) to IC50 for inhibition of EGFR del19 mutant (unknown origin)
Homo sapiens [11] = species on record: Homo sapiens; assay: Selectivity ratio of IC50 for inhibition of wild type EGFR (unknown origin) to IC50 for inhibition of EGFR del19/T790M mutant (unknown origin)
Homo sapiens [12] = species on record: Homo sapiens; assay: Selectivity ratio of IC50 for inhibition of wild type EGFR (unknown origin) to IC50 for inhibition of EGFR L858R/T790M mutant (unknown origin)
Homo sapiens [13] = species on record: Homo sapiens; assay: Selectivity ratio of IC50 for inhibition of wild type EGFR (unknown origin) to IC50 for inhibition of EGFR L858R/T790M/C797S mutant (unknown origin)
Homo sapiens [14] = species on record: Homo sapiens; assay: Selectivity ratio of IC50 for inhibition of wild type EGFR (unknown origin) to IC50 for inhibition of EGFR del19/T790M/C797S mutant (unknown origin)
[15] = Volume of distribution at steady state in CD-1 mouse at 2 mg/kg, iv; assay type: ADME, organism-based; conditions: in vivo, read-out: Vdss
[16] = Half-life in CD-1 mouse at 2 mg/kg, iv; assay type: ADME, organism-based; conditions: in vivo
[17] = Clearance in CD-1 mouse at 2 mg/kg, iv; assay type: ADME, organism-based; conditions: in vivo
[18] = AUC (0 to last) in CD-1 mouse at 2 mg/kg, iv; assay type: ADME, organism-based; set-up: time 0 - last, dose 2 mg/kg, route iv; conditions: in vivo
[19] = Cmax in CD-1 mouse at 10 mg/kg, po; assay type: ADME, organism-based; set-up: dose 10 mg/kg, route po; conditions: in vivo
[20] = Tmax in CD-1 mouse at 10 mg/kg, po; assay type: ADME, organism-based; conditions: in vivo
[21] = AUC (0 to last) in CD-1 mouse at 10 mg/kg, po; assay type: ADME, organism-based; set-up: time 0 - last, dose 10 mg/kg, route po; conditions: in vivo
[22] = Oral bioavailability in CD-1 mouse at 10 mg/kg; assay type: ADME, organism-based; conditions: in vivo
PC-9 [23] = assay: cells; conditions: Homo sapiens, PC-9, 72 h

IC50 (BaF3): > 1 µM
IC50 (PC-9 [1]): > 1 µM
SMILES: COc1cc(N2CCC(N3CCN(CCS(C)(=O)=O)CC3)CC2)c(-c2cnn(C)c2)cc1Nc1ncc(Br)c(Nc2ccc(C)c(C)c2P(C)(C)=O)n1

IC50 (PC-9 [1]): 0.127 µM
SMILES: CCc1cc(Nc2ncc(Br)c(Nc3ccc4nccnc4c3P(C)(C)=O)n2)c(OC)cc1N1CCC(N(C)CCS(C)(=O)=O)CC1

IC50 (BaF3): 0.00387 µM
IC50 (PC-9 [1]): 0.148 µM
SMILES: CCc1cc(Nc2ncc(Br)c(Nc3ccc4nccnc4c3P(C)(C)=O)n2)c(OC)cc1N1CCC(N2CCN(CCSC)CC2)CC1

IC50 (BaF3): > 1 µM
IC50 (PC-9 [1]): > 1 µM
SMILES: COc1cc(N2CCC(N3CCN(C)CC3)CC2)ccc1Nc1ncc(Br)c(Nc2cc3c4c(cccc4c2P(C)(C)=O)CC3)n1

IC50 (BaF3): > 1 µM
IC50 (PC-9 [1]): > 1 µM
SMILES: COc1cc(N2CCC(N3CCN(C)CC3)CC2)ccc1Nc1ncc(Br)c(Nc2cc3c4c(cccc4c2P(C)(C)=O)COC3)n1

IC50 (BaF3): > 1 µM
IC50 (PC-9 [1]): > 1 µM
SMILES: CCc1cc(Nc2ncc(Br)c(Nc3cc4c5c(cccc5c3P(C)(C)=O)CC4)n2)c(OC)cc1N1CCC(N2CCN(C)CC2)CC1

IC50 (BaF3): > 1 µM
IC50 (PC-9 [1]): > 1 µM
SMILES: COc1cc(N2CCC(N3CCN(C)CC3)CC2)c(-c2cnn(C3CC3)c2)cc1Nc1ncc(Br)c(Nc2ccc(C)c(C)c2P(C)(C)=O)n1

IC50 (BaF3): 0.0036 µM
IC50 (PC-9 [1]): 0.0674 µM
SMILES: COc1cc(N2CCC(N3CCN(C)CC3)CC2)c(-c2cnn(C)c2)cc1Nc1ncc(Br)c(Nc2cc(C)c(C)c(C)c2P(C)(C)=O)n1

IC50 (BaF3): > 1 µM
IC50 (PC-9 [1]): > 1 µM
SMILES: COc1cc(N2CCC(N3CCN(C)CC3)CC2)ccc1Nc1ncc(Br)c(Nc2ccc3c(ccc4ccccc43)c2P(C)(C)=O)n1

Further lines, the compound ahead of its results:

SMILES: CCc1cc(Nc2ncc(Br)c(Nc3ccc4nccnc4c3P(C)(C)=O)n2)c(OC)cc1N1CCC(N2CCN(CCS(C)(=O)=O)CC2)CC1
IC50 (BaF3): 0.00153 µM
IC50 (PC-9 [1]): 0.0667 µM
IC50 [2]: 0.0104 µM
IC50 [3]: 0.0031 µM
IC50 [4]: 0.0009 µM
IC50 [5]: 0.0001 µM
IC50 [6]: 0.0002 µM
IC50 [7]: 0.0003 µM
IC50 [8]: 0.0002 µM
Ratio IC50 (Homo sapiens [9]): 3.4
Ratio IC50 (Homo sapiens [10]): 11
Ratio IC50 (Homo sapiens [11]): 81
Ratio IC50 (Homo sapiens [12]): 43
Ratio IC50 (Homo sapiens [13]): 41
Ratio IC50 (Homo sapiens [14]): 54
Vd [15]: 0.7 L/kg
half-life [16]: 3.3 h
clearance [17]: 2.4 mL/min/kg
AUClast [18]: 13820 ng·h/mL
Cmax [19]: 6600 ng/mL
Tmax [20]: 0.5 h
AUC(0-t) [21]: 33800 ng·h/mL
bioavailability [22]: 48.9%

SMILES: COc1cc(N2CCC(N3CCN(C)CC3)CC2)c(-c2cnn(C)c2)cc1Nc1ncc(Br)c(Nc2cc(F)c(C)c(C)c2P(C)(C)=O)n1
IC50 (BaF3): > 1 µM
IC50 (PC-9 [1]): > 1 µM

SMILES: CCc1cc(Nc2ncc(Br)c(Nc3ccc4c(ccc5ccccc54)c3P(C)(C)=O)n2)c(OC)cc1N1CCC(N2CCN(C)CC2)CC1
IC50 (BaF3): > 1 µM
IC50 (PC-9 [1]): > 1 µM

SMILES: CCc1cc(Nc2ncc(Br)c(Nc3ccc(C4CC4)cc3P(C)(C)=O)n2)c(OC)cc1N1CCC(N2CCN(CCS(C)(=O)=O)CC2)CC1
IC50 (BaF3): > 1 µM
IC50 (PC-9 [1]): > 1 µM

SMILES: COc1cc(N2CCC(N3CCN(C)CC3)CC2)ccc1Nc1ncc(Cl)c(Nc2ccccc2P(C)(C)=O)n1 [BRIGATINIB]
IC50 (PC-9 [23]): 0.599 µM

SMILES: CCc1cc(Nc2ncc(Br)c(Nc3ccc4nc5c(nc4c3P(C)(C)=O)CCCC5)n2)c(OC)cc1N1CCC(N2CCN(C)CC2)CC1
IC50 (BaF3): 0.0374 µM
IC50 (PC-9 [1]): 0.217 µM

SMILES: CCc1cc(Nc2ncc(Br)c(Nc3cc4c5c(cccc5c3P(C)(C)=O)COC4)n2)c(OC)cc1N1CCC(N2CCN(C)CC2)CC1
IC50 (BaF3): > 1 µM
IC50 (PC-9 [1]): > 1 µM
